The NIST ThermoML archive (doi:10.1007/s10765-013-1526-8)

How the values were obtained:
[1] = xn = mol fraction of the nth substance listed; details: 101 kPa, Liquid; for speed of sound: Sing-around technique in a fixed-path interferometer
[2] = refractive index (Na D-line) (dimensionless); xn = mol fraction of the nth substance listed; details: 101 kPa, Liquid

CCCCC(CC)CO (stereo not given) [2-ethyl-1-hexanol] + c1ccccc1
Details | mass density, [1] [kg/m3] | refractive index, [2] | speed of sound, [1] [m/s] | viscosity, [1] [mPa·s]
298.15 K, x2 = 0 | 829.07 | 1.4287 | 1319 | 8.418
298.15 K, x2 = 0.0606 | 829.89 | 1.4332 | 1313 | 7.185
298.15 K, x2 = 0.1203 | 830.77 | 1.4376 | 1308 | 6.102
298.15 K, x2 = 0.1798 | 831.79 | 1.4418 | 1304 | 5.153
298.15 K, x2 = 0.2384 | 832.95 | 1.4463 | 1299 | 4.364
298.15 K, x2 = 0.3132 | 834.73 | 1.4519 | 1293 | 3.469
298.15 K, x2 = 0.3915 | 836.9 | 1.4577 | 1288 | 2.697
298.15 K, x2 = 0.4515 | 838.87 | 1.4624 | 1283 | 2.222
298.15 K, x2 = 0.526 | 841.73 | 1.468 | 1278 | 1.749
298.15 K, x2 = 0.5849 | 844.27 | 1.4726 | 1275 | 1.474
298.15 K, x2 = 0.6557 | 847.83 | 1.4778 | 1273 | 1.202
298.15 K, x2 = 0.726 | 851.85 | 1.4829 | 1272 | 1.008
298.15 K, x2 = 0.7937 | 856.26 | 1.4877 | 1273 | 0.866
298.15 K, x2 = 0.8592 | 861.07 | 1.492 | 1276 | 0.764
298.15 K, x2 = 0.9299 | 867.04 | 1.4953 | 1284 | 0.68
303.15 K, x2 = 0 | 825.39 | 1.4266 | 1301 | 7.144
303.15 K, x2 = 0.0606 | 826.11 | 1.4312 | 1297 | 5.969
303.15 K, x2 = 0.1203 | 826.92 | 1.4355 | 1292 | 4.984
303.15 K, x2 = 0.1798 | 827.89 | 1.4397 | 1287 | 4.114
303.15 K, x2 = 0.2384 | 828.98 | 1.4442 | 1282 | 3.409
303.15 K, x2 = 0.3132 | 830.66 | 1.4499 | 1275 | 2.624
303.15 K, x2 = 0.3915 | 832.74 | 1.4557 | 1269 | 2.002
303.15 K, x2 = 0.4515 | 834.63 | 1.4604 | 1264 | 1.621
303.15 K, x2 = 0.526 | 837.35 | 1.4661 | 1258 | 1.305
303.15 K, x2 = 0.5849 | 839.78 | 1.4708 | 1255 | 1.127
303.15 K, x2 = 0.6557 | 843.22 | 1.4761 | 1252 | 0.953
303.15 K, x2 = 0.726 | 847.09 | 1.4811 | 1252 | 0.852
303.15 K, x2 = 0.7937 | 851.36 | 1.4858 | 1253 | 0.758
303.15 K, x2 = 0.8592 | 856.01 | 1.4899 | 1256 | 0.701
303.15 K, x2 = 0.9299 | 861.77 | 1.4934 | 1264 | 0.654
308.15 K, x2 = 0 | 821.68 | 1.4245 | 1283 | 6.09
308.15 K, x2 = 0.0606 | 822.28 | 1.4292 | 1278 | 5.084
308.15 K, x2 = 0.1203 | 823.05 | 1.4335 | 1273 | 4.22
308.15 K, x2 = 0.1798 | 823.96 | 1.4378 | 1269 | 3.49
308.15 K, x2 = 0.2384 | 825.01 | 1.4423 | 1265 | 2.903
308.15 K, x2 = 0.3132 | 826.61 | 1.448 | 1260 | 2.272
308.15 K, x2 = 0.3915 | 828.57 | 1.4539 | 1255 | 1.741
308.15 K, x2 = 0.4515 | 830.4 | 1.4585 | 1252 | 1.451
308.15 K, x2 = 0.526 | 832.98 | 1.4642 | 1248 | 1.174
308.15 K, x2 = 0.5849 | 835.32 | 1.4689 | 1245 | 1.02
308.15 K, x2 = 0.6557 | 838.62 | 1.4743 | 1242 | 0.881
308.15 K, x2 = 0.726 | 842.36 | 1.4793 | 1240 | 0.785
308.15 K, x2 = 0.7937 | 846.49 | 1.4839 | 1239 | 0.713
308.15 K, x2 = 0.8592 | 850.99 | 1.4879 | 1240 | 0.659
308.15 K, x2 = 0.9299 | 856.56 | 1.4913 | 1243 | 0.605
